Measurements taken from patent US20190085207A1, “POLISHING COMPOSITION FOR OBJECT TO BE POLISHED HAVING METAL-CONTAINING LAYER” (FUJIMI INCORPORATED, priority 2016, published 2019).

Assay: Acid dissociation constant (pKa) of the acid
Description: In this specification, the acid dissociation constant (pKa) of the acid is an index of acidity, and a common logarithm is employed as a reciprocal of the dissociation constant (Ka) of acid. That is, the acid dissociation constant (pKa) of the acid is obtained by measuring the dissociation constant Ka=[H3O^+] [B^−]/[BH] under a dilute aqueous solution condition and using a formula: pKa=−log Ka Incidentally, in the above formula, BH represents an organic acid and B^− represents a conjugate base of an organic acid. The measurement method of pKa is as follows: a hydrogen ion concentration is measured using a pH meter and pKa can be calculated from the concentration of the substance and the hydrogen ion concentration. Incidentally, in the case of polybasic acid, the pKa is a value calculated for the first Ka (pKa1).

| pKa (dilute aqueous solution) | Structure (SMILES) | pKa |
| --- | --- | --- |
| 4.37 | CC(C)(O)C(=O)O [2-Hydroxyisobutyric acid] | – |
| 3.4 | O=C(O)C(O)CO (centres unmarked) [Glyceric acid] | – |
| – | CC(C)CC(O)C(=O)O (centres unmarked) [Leucine acid] | 3.9 |
| – | O=C(O)CC(O)C(=O)O (centres unmarked) [Malic acid] | 3.4 |
| 4.6 | CCCCC(=O)O [Valeric acid] | – |
